Laboratory results: US12065430B2, “Indazole compound or salt thereof” (TAIHO PHARMACEUTICAL CO., LTD., priority 2018, dated 2024)
pIC50: −log10 of the molar value.

Tests used:
[1] = system: cancer cells with KRAS G12C mutation; details: reported in PTL 1 and NPL 2; cited from earlier work
[2] = biological target: G12C mutant of inactive KRAS (GDP) (Homo sapiens (Human), UniProt P01116, G12C); details: reported in PTL 1 and NPL 2; cited from earlier work
[3] = system: tumor-bearing mice expressing KRAS G12C mutation; details: reported in PTL 2 and NPL 3; cited from earlier work
NCI-H358 cells = experiment: Growth inhibition activity on KRAS-G12C mutant cell line (NCI-H358) (in vitro, CellTiter-Glo2.0); type: cell-based; details: Homo sapiens, NCI-H358, 72 h, 3-day culture in the presence of the compound
Experimental: NCI-H358 cells (ATCC, Cat #: CRL-5807), which are a KRAS-G12C mutant human lung cancer cell line, were suspended in a 10% fetal bovine serum-containing RPMI1640 medium (manufactured by Fujifilm Wako Pure Chemical Corporation.). The cell suspension was seeded into each well of a 384-well flat-bottom microplate and cultured in an incubator containing 5% CO2 gas at 37° C. for 1 day. The test compound was dissolved in DMSO, and diluted with DMSO to give a concentration 500 times the final concentration. The solution of the test compound in DMSO was diluted with the medium used for suspending cells and added to each well of the cell-culture plate to give a DMSO final concentration of 0.2%, followed by culture in an incubator containing 5% CO2 gas at 37° C. for another 3 days. The cell count after 3-day culture in the presence of the compound was measured using CellTiter-Glo2.0 (manufactured by Promega Corporation) in accordance with the protocol recommended by Promega Corporation. The growth inhibition rate was calculated from the following equation, and the concentration of the test compound at which 50% inhibition was achieved (IC50 (nM)) was determined. […] Growth Inhibition Rate (%)=(C−T)/(C)×100 • T: the emission intensity in a well into which a test compound was added. • C: the emission intensity in a well into which a test compound was not added.

KRAS G12C = KRAS G12C (Homo sapiens (Human), UniProt P01116, G12C); experiment: Inhibitory activity on KRAS G12C nucleotide (GDP-GTP) exchange reaction (Bodipy FL GDP, SOS1, GppNHp); type: biochemical; details: preincubation at 25° C. for 4 hours; SOS1 100 nM, GppNHp 1 μM, reaction 30 minutes
Experimental: The inhibitory activity of compounds on exchange reaction of GDP into GppNHp in Bodipy (trademark) FL-bound KRAS G12C was examined by fluorescence measurement using human recombinant KRAS G12C and SOS1 proteins.
For the preparation of KRAS G12C to which Bodipy FL GDP was bound, first, 50 μM^y KRAS G12C (amino acid region: 1-169) and 1 mM Bodipy FL GDP (Invitrogen, G22360) were incubated for 1 hour in a buffer (20 mM Tris-HCl (pH 7.5), 50 mM NaCl, 1 mM DTT) in ice in the presence of 2.5 mM EDTA. Thereafter, MgCl2 with a final concentration of 10 mM was added, and the mixture was incubated at room temperature for 30 minutes. The protein was allowed to pass through a NAP-5 column to remove free nucleotides and was used for compound evaluation.
For the measurement of the inhibitory activity of compounds on nucleotide exchange reaction, first, the compound of the present invention was diluted stepwise with dimethyl sulfoxide (DMSO). […] The change in fluorescence intensity of Bodipy FL (excitation wavelength: 485 nm, fluorescence wavelength: 520 nm) immediately after the start of reaction and after 30 minutes from the start of reaction was standardized. […]

G12C K-Ras4B (1-169) = G12C K-Ras4B (1-169) (Homo sapiens (Human), UniProt P01116, G12C); experiment: Test of compounds on whether to bind to KRASG12C (LC-MS compound binding rate); details: final compound concentration of 2 μM, 1 μM protein, 25° C. for 2 hours
How it was run: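 K-Ras4B (1-169) WT and G12C (1 μM each, mixed) in 1×TBS, 0.1 mM TCEP incubated with compound (final 2 μM) 2 h at 25° C; quenched with 0.2% formic acid. Intact-protein LC-MS (ESI+, deconvoluted); binding rate = adduct signal/(adduct + unbound signal), giving selectivity over WT.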

G12C mutant of inactive KRAS (GDP), sequence (P01116-2 other isoform, or with tags, fused parts or gaps G12C): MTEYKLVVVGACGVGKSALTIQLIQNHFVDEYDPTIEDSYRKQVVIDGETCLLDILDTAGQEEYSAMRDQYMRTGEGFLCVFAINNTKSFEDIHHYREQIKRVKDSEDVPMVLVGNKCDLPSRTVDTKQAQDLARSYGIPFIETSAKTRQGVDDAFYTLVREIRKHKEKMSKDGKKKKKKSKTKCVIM

pIC50 (NCI-H358 cells) | SMILES | binding rate for G12C K-Ras4B (1-169) (G12C K-Ras4B (1-169)) | other results
– | C=CC(=O)N1CC(N2CCN(C(=O)CNc3cc(C4(C)CC4)c(Cl)cc3O)CC2)C1 [ARS-853] | – | induction of apoptosis [1]: inducing apoptosis in cancer cells with KRAS G12C mutation; binding to the cysteine of the G12C mutant of inactive KRAS (GDP) [2]: binds to the cysteine of the G12C mutant of inactive KRAS (GDP)
– | C=CC(=O)N1CCN(c2ncnc3c(F)c(-c4c(O)cccc4F)c(Cl)cc23)CC1 [ARS-1620] | – | antitumor action [3]: exerts antitumor action in tumor-bearing mice expressing KRAS G12C mutation
7.28 | C=CC(=O)N1CC(NC(=O)c2c(Cl)nc(CNc3n[nH]c4cc(Cl)c(C(C)(C)C)cc34)n2[C@H]2CC[C@@H](OC)CC2)C1 [Example 112, N-(1-acryloylazetidin-3-yl)-2-(((5-(tert-butyl)-6-chloro-1H-indazol-3-yl)amino)methyl)-4-chloro-1-(4-methoxycyclohexyl)-1H-imidazole-5-carboxamide] | A (a binding rate of 80% or more is rated “A,”) | pIC50 (KRAS G12C): 8.30
7.49 | C=CC(=O)N1CC(NC(=O)c2c(Cl)nc(CNc3n[nH]c4cc(Cl)c(C(C)(C)C)cc34)n2[C@@H]2CCN(C(C)C)C2)C1 [Example 114, (R)—N-(1-acryloylazetidin-3-yl)-2-(((5-(tert-butyl)-6-chloro-1H-indazol-3-yl)amino)methyl)-4-chloro-1-(1-isopropylpyrrolidin-3-yl)-1H-imidazole-5-carboxamide] | A (a binding rate of 80% or more is rated “A,”) | –
7.68 | C=CCN1CC[C@@H](n2c(CNc3n[nH]c4cc(Cl)c(C(C)(C)C)cc34)nc(Cl)c2C(=O)NC2CN(C(=O)C=C)C2)C1 [Example 123, (R)—N-(1-acryloylazetidin-3-yl)-1-(1-allylpyrrolidin-3-yl)-2-(((5-(tert-butyl)-6-chloro-1H-indazol-3-yl)amino)methyl)-4-chloro-1H-imidazole-5-carboxamide] | A (a binding rate of 80% or more is rated “A,”) | –
7.72 | C=CC(=O)N1CC(NC(=O)c2c(Cl)nc(CNc3n[nH]c4cc(Cl)c(C(C)(C)C)cc34)n2[C@@H]2CCN(c3ccccn3)C2)C1 [Example 124, (R)—N-(1-acryloylazetidin-3-yl)-2-(((5-(tert-butyl)-6-chloro-1H-indazol-3-yl)amino)methyl)-4-chloro-1-(1-(pyridin-2-yl)pyrrolidin-3-yl)-1H-imidazole-5-carboxamide] | A (a binding rate of 80% or more is rated “A,”) | –
7.46 | C=CC(=O)N1CC(NC(=O)c2c(Cl)nc(CNc3n[nH]c4cc(Cl)c(C(C)(C)C)cc34)n2[C@@H]2C[C@@H](C)N(CC(F)F)C2)C1 [Example 126, N-(1-acryloylazetidin-3-yl)-2-(((5-(tert-butyl)-6-chloro-1H-indazol-3-yl)amino)methyl)-4-chloro-1-((3R,5R)-1-(2,2-difluoroethyl)-5-methylpyrrolidin-3-yl)-1H-imidazole-5-carboxamide] | A (a binding rate of 80% or more is rated “A,”) | –
